Experimental data published in US11426397B2, “Piperidinyl- and piperazinyl-substituted heteroaromatic carboxamides as modulators of GPR6” (TAKEDA PHARMACEUTICAL COMPANY LIMITED, priority 2017, dated 2022).

Molecular target: T1, GPR6 receptor expressed in CHO-K1 cells (Homo sapiens, UniProt P46095)
T1 construct: expressed in transfected cells
Experiment: In vitro inhibition of cAMP (EC50), cell-based HTRF cAMP assay
Conditions: inhibition of constitutive cAMP activity of GPR6 in CHO-K1 cells
Procedure: I. In Vitro Inhibition of cAMP (EC50)
This cell based assay measures the ability of test compounds to inhibit the constitutive cAMP activity of GPR6 receptor expressed in CHO-K1 cells. CHO cells are stably expressed with GPR6 receptor, whose expression is controlled by a tetracycline inducible element. The cells were cultured in medium containing F12K, 10% FBS, 1% Penn/Strep, 200 μg/mL Hygromycin. GPR6 receptor expression is induced for 20 hours with 2 μg/mL doxycycline (Sigma D9891) in growth media. After addition of doxycycline, the cells are plated at a density of 450-750 cells per well in 96-well half-volume black tissue culture plates (Costar) and placed in an incubator (37° C., 5% CO2) for 20 hours prior to cAMP assays.
Culture media is removed from the cells and they are washed with 50 μL/well of Ringer's Buffer (MgCl2 0.047 mg/mL, NaH2PO4 0.18 mg/mL, Na2HPO4 0.1 mg/mL, KCl 0.34 mg/mL, NaHCO3 1.26 mg/mL, D-glucose 1.8 mg/mL, NaCl 7 mg/mL; pH=7.4). The test compounds are suspended in DMSO, diluted in Ringer's Buffer containing 0.5% fatty acid free BSA plus 300 μM IBMX, and incubated on the cells for 45 minutes at 37° C. and 5% CO2. After incubation, the cells are conditioned for 10 minutes at room temp with Eu-cAMP tracer solution from a Perkin Elmer Lance HTRF Ultra cAMP assay kit (TRF0263). Then ULight™-anti-cAMP solution from the Lance HTRF kit is added and incubated on a shaker at room temp for 1 hour prior to HTRF detection in a Perkin Elmer Envision plate reader. EC50 curves are generated with a four-parameter logistic equation using GraphPad Prism 5.03.
Table 1 lists biological assay data (in vitro inhibition of cAMP) for some of the compounds shown in the examples, where larger pEC50 values represent higher activity or potency. All of the compounds shown in Table 1 were tested in accordance with a cell-based assay which measures the ability of test compounds to inhibit the constitutive cAMP activity of GPR6 receptor expressed in CHO-K1 cells (reported as pEC50). The assay is described in the specification under the heading “In vitro inhibition of cAMP (EC50).”

T1 sequence (P46095 whole entry): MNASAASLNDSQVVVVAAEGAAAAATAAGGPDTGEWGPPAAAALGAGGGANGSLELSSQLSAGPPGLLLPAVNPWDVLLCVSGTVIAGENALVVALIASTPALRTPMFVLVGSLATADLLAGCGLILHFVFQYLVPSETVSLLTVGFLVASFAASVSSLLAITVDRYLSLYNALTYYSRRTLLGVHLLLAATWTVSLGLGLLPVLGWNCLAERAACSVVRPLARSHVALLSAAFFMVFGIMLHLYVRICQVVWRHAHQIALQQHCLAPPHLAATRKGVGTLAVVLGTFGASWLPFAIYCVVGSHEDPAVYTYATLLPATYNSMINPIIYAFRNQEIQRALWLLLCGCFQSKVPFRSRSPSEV

Compound | pEC50, in vitro inhibition of cAMP
CCCCn1cccc(C(=O)Nc2cc(C#N)ccc2N2CCC(Oc3ccc(F)cc3F)CC2)c1=O [Example 179, 1-butyl-N-(5-cyano-2-(4-(2,4-difluorophenoxy)piperidin-1-yl)phenyl)-2-oxo-1,2-dihydropyridine-3-carboxamide] | 6.2
COc1nn(C)cc1C(=O)Nc1cc(C#N)cnc1N1CCN(Cc2ccccc2OC(F)F)CC1 [Example 163, N-(5-cyano-2-(4-(2-(difluoromethoxy)benzyl)piperazin-1-yl)pyridin-3-yl)-3-methoxy-1-methyl-1H-pyrazole-4-carboxamide] | 6.7
Cc1ccc(SC2CCN(c3ncc(C#N)cc3NC(=O)c3ccccn3)CC2)cc1 [Example 69, N-(5-cyano-2-(4-(p-tolylthio)piperidin-1-yl)pyridin-3-yl)picolinamide] | 6.7
Cn1cccc(C(=O)Nc2cc(C#N)ccc2N2CCC(C(=O)c3cc(F)ccc3F)CC2)c1=O [Example 82, N-(5-cyano-2-(4-(2,5-difluorobenzoyl)piperidin-1-yl)phenyl)-1-methyl-2-oxo-1,2-dihydropyridine-3-carboxamide] | 7.0
COc1ccc(F)c(CN2CCN(c3ccc(C#N)cc3NC(=O)c3cccnc3OC)CC2)c1 [Example 242, N-(5-cyano-2-(4-(2-fluoro-5-methoxybenzyl)piperazin-1-yl)phenyl)-2-methoxynicotinamide] | 6.8
O=C(Nc1ccccc1N1CCN(C(=O)c2ccc(Cl)cc2)CC1)c1ccncn1 [Example 259, N-(2-(4-(4-chlorobenzoyl)piperazin-1-yl)phenyl)pyrimidine-4-carboxamide] | 5.3
COc1ncc(F)cc1C(=O)Nc1ccc(C)nc1N1CCN(Cc2ccc(F)cc2)CC1 [Example 100, 5-fluoro-N-(2-(4-(4-fluorobenzyl)piperazin-1-yl)-6-methylpyridin-3-yl)-2-methoxynicotinamide] | 6.8
COc1ccc(CN2CCN(c3ncc(C#N)cc3NC(=O)c3cn(C)nc3OC)CC2)cc1F [Example 168, N-(5-cyano-2-(4-(3-fluoro-4-methoxybenzyl)piperazin-1-yl)pyridin-3-yl)-3-methoxy-1-methyl-1H-pyrazole-4-carboxamide] | 6.4
COc1nn(C)cc1C(=O)Nc1cc(C#N)cnc1N1CCN(Cc2c(F)cc(F)cc2F)CC1 [Example 173, N-(5-cyano-2-(4-(2,4,6-trifluorobenzyl)piperazin-1-yl)pyridin-3-yl)-3-methoxy-1-methyl-1H-pyrazole-4-carboxamide] | 6.8
COc1ncccc1C(=O)Nc1cnc(C(=O)N[C@@H]2CCOC2)cc1N1CCC(Oc2ccc(F)cc2F)CC1 [Example 251, (R)-4-(4-(2,4-difluorophenoxy)piperidin-1-yl)-5-(2-methoxynicotinamido)-N-(tetrahydrofuran-3-yl)picolinamide] | 6.8
Cn1ncc2ccc(NC(=O)c3ccccn3)c(N3CCC(Oc4ccc(F)cc4F)CC3)c21 [Example 77, N-(7-(4-(2,4-difluorophenoxy)piperidin-1-yl)-1-methyl-1H-indazol-6-yl)picolinamide] | <5.7
COc1c(F)cccc1C(=O)Nc1cc(S(C)(=O)=O)ccc1N1CCC(Oc2ccc(F)cc2F)CC1 [Example 10] | 6.9
[2H]C([2H])([2H])N(C(=O)c1cc(N2CCC(Oc3ccc(F)cc3F)CC2)c(NC(=O)c2cccnc2OC)cn1)C([2H])([2H])[2H] [Example 22, 4-(4-(2,4-difluorophenoxy)piperidin-1-yl)-5-(2-methoxynicotinamido)-N,N-bis(methyl-d3)picolinamide] | 7.1
COc1nn(C)cc1C(=O)Nc1cc(C#N)cnc1N1CCN(Cc2ccc(OC(F)(F)F)cc2)CC1 [Example 166, N-(5-cyano-2-(4-(4-(trifluoromethoxy)benzyl)piperazin-1-yl)pyridin-3-yl)-3-methoxy-1-methyl-1H-pyrazole-4-carboxamide] | 6.1

Next, values leading:

pEC50, in vitro inhibition of cAMP | Compound
6.3 | COc1ccc(OC(F)(F)F)cc1C(=O)Nc1cc(C#N)ccc1N1CCC(Oc2ccc(F)cc2F)CC1 [Example 231, N-(5-cyano-2-(4-(2,4-difluorophenoxy)piperidin-1-yl)phenyl)-2-methoxy-5-(trifluoromethoxy)benzamide]
7.1 | COc1ncccc1C(=O)Nc1cc(C#N)cnc1N1CCC(Oc2ccc(F)cc2F)CC1 [Example 63, N-(5-cyano-2-(4-(2,4-difluorophenoxy)piperidin-1-yl)pyridin-3-yl)-2-methoxynicotinamide]
4.9 | CN(C)C(=O)Cn1cccc(C(=O)Nc2cc(C#N)ccc2N2CCC(Oc3ccc(F)cc3F)CC2)c1=O [Example 204, N-(5-cyano-2-(4-(2,4-difluorophenoxy)piperidin-1-yl)phenyl)-1-(2-(dimethylamino)-2-oxoethyl)-2-oxo-1,2-dihydropyridine-3-carboxamide]
5.8 | COc1c(C(=O)Nc2cc(C#N)ccc2N2CCC(Oc3ccc(F)cc3F)CC2)nnn1Cc1ccccc1 [Example 220, 1-benzyl-N-(5-cyano-2-(4-(2,4-difluorophenoxy)piperidin-1-yl)phenyl)-5-methoxy-1H-1,2,3-triazole-4-carboxamide]
6.9 | COc1ncccc1C(=O)Nc1cnc(C#N)cc1N1CCC(Oc2ccc(F)cc2F)CC1 [Example 270, N-(6-cyano-4-(4-(2,4-difluorophenoxy)piperidin-1-yl)pyridin-3-yl)-2-methoxynicotinamide]
7.3 | N#Cc1ccc(N2CCC(Oc3ccc(F)cc3F)CC2)c(NC(=O)c2cccnc2OC(F)F)c1 [Example 276, N-(5-cyano-2-(4-(2,4-difluorophenoxy)piperidin-1-yl)phenyl)-2-(difluoromethoxy)nicotinamide]
6.5 | N#Cc1ccc(N2CCC(Oc3ccc(F)cc3F)CC2)c(NC(=O)c2ccc(F)cn2)c1 [Example 106, N-(5-cyano-2-(4-(2,4-difluorophenoxy)piperidin-1-yl)phenyl)-5-fluoropicolinamide]
<5.7 | Cc1nonc1C(=O)Nc1cc(C#N)ccc1N1CCC(Oc2ccc(F)cc2F)CC1 [Example 119, N-(5-cyano-2-(4-(2,4-difluorophenoxy)piperidin-1-yl)phenyl)-4-methyl-1,2,5-oxadiazole-3-carboxamide]
7.0 | COc1cccc(C(=O)Nc2cc(C#N)ccc2N2CCC(Oc3ccc(F)cc3F)CC2)n1 [Example 175, N-(5-cyano-2-(4-(2,4-difluorophenoxy)piperidin-1-yl)phenyl)-6-methoxypicolinamide]
7.1 | Cc1nc(C(=O)Nc2cc(C#N)ccc2N2CCC(Oc3ccc(F)cc3F)CC2)ccc1F [Example 137, N-(5-cyano-2-(4-(2,4-difluorophenoxy)piperidin-1-yl)phenyl)-5-fluoro-6-methylpicolinamide]
6.8 | N#Cc1ccc(N2CCC(Oc3ccc(F)cc3F)CC2)c(NC(=O)c2cnc3ccccn3c2=O)c1 [Example 178, N-(5-cyano-2-(4-(2,4-difluorophenoxy)piperidin-1-yl)phenyl)-4-oxo-4H-pyrido[1,2-a]pyrimidine-3-carboxamide]
7.0 | N#Cc1ccc(N2CCC(Oc3ccc(F)cc3F)CC2)c(NC(=O)c2ncccc2F)c1 [Example 108, N-(5-cyano-2-(4-(2,4-difluorophenoxy)piperidin-1-yl)phenyl)-3-fluoropicolinamide]
5.5 | COc1ccc(N2CCOCC2)cc1C(=O)Nc1cc(C#N)ccc1N1CCC(Oc2ccc(F)cc2F)CC1 [Example 215, N-(5-cyano-2-(4-(2,4-difluorophenoxy)piperidin-1-yl)phenyl)-2-methoxy-5-morpholinobenzamide]
6.4 | COc1cc(C(C)(C)C)ccc1C(=O)Nc1cc(C#N)ccc1N1CCC(Oc2ccc(F)cc2F)CC1 [Example 216, 4-(tert-butyl)-N-(5-cyano-2-(4-(2,4-difluorophenoxy)piperidin-1-yl)phenyl)-2-methoxybenzamide]
7.1 | COc1ncncc1C(=O)Nc1cc(C#N)ccc1N1CCC(Oc2ccc(F)cc2F)CC1 [Example 37, N-(5-cyano-2-(4-(2,4-difluorophenoxy)piperidin-1-yl)phenyl)-4-methoxypyrimidine-5-carboxamide]
6.9 | COc1ccc(C(=O)Nc2cc(C#N)ccc2N2CCC(Oc3ccc(F)cc3F)CC2)c(OC)n1 [Example 78, N-(5-cyano-2-(4-(2,4-difluorophenoxy)piperidin-1-yl)phenyl)-2,6-dimethoxynicotinamide]
